Read-outs that look alike come from different tables or passages of the source. Where only a bound is given, the exact number is not on record here.

Holding throughout (assay type): biochemical
One assay concerns the target DPP-IV (Homo sapiens, UniProt P27487). The assay can be described thus: Inhibition to DPP-IV measured by a fluorescence assay (DPPIV-Glo). The settings on record: 66 pM DPP-4, pH 7.5, 10 min preincubation at RT, 30 min reaction, 8 concentrations, assayed twice. How it is done:
(§1) The preparation of the reaction solution DPPIV-Glo® buffer should be thawed in advance. The freeze-dried […] should be taken out of the refrigerator in advance and left to room temperature. The DPPIV-Glo® substrate was dissolved in 110 μl water, and mixed thoroughly by votex as a stock solution (the concentration is 10 mmol). The […] was added into an ampoule containing 50 mL DPPIV-Glo™ buffer. Then, 100 μl solution containing DPPIV-Glo™ substrate was mixed with 50 mL DPPIV-Glo™ buffer containing a […] to afford the reaction solution, which needs to be stored in a refrigerator at −20° C.
1. The inhibition to DPP-IV was measured by a fluorescence assay:
All of the compounds were 10-fold diluted by DMSO before the experiment, and each compound needs to be diluted to 8 concentrations. Before the experiment, the solution containing DPP-IV enzyme was incubated with the mixture of compounds for 10 min at RT. And then, the reaction solution was added and incubated for 30 min. The enzyme was not added to the negative control group. The fluorescence signal was assayed after 30 min. All of the compounds were assayed twice.

The target of the next assay is DPP-8 (Homo sapiens, UniProt Q6V1X1). The assay can be described thus: Inhibition to DPP-8 measured by a fluorescence assay (DPPIV-Glo). The settings on record: 111.9 pM DPP-8, pH 7.5, 10 min preincubation at RT, 30 min reaction, 8 concentrations, assayed twice. Here is the method: as §1
Chain of DPP-8 (Q6V1X1 whole entry, species assumed): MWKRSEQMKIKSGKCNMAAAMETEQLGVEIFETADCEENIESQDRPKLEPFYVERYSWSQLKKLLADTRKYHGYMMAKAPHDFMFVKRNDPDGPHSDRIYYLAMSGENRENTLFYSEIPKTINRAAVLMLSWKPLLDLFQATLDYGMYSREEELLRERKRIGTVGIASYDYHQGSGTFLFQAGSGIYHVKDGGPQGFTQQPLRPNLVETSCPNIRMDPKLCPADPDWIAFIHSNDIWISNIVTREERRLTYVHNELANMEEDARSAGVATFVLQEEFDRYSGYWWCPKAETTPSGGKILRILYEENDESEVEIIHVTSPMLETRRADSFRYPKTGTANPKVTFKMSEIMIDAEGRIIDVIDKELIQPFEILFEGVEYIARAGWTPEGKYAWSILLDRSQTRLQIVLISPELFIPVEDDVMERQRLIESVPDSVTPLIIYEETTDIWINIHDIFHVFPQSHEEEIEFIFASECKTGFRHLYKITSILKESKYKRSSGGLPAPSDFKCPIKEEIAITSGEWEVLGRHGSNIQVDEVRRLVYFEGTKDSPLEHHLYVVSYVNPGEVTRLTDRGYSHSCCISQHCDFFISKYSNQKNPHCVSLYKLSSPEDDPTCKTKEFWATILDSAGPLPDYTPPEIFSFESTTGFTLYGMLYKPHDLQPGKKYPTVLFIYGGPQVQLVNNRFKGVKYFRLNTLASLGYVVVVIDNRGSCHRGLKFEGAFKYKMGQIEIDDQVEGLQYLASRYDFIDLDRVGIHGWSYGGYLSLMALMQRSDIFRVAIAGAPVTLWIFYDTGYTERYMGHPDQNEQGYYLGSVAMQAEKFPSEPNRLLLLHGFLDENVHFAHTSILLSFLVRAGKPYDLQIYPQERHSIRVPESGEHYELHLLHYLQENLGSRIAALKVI
2. The inhibition to DPP-8 was measured by a fluorescence assay:
All of the compounds were 10-fold diluted by DMSO before the experiment, and each compound needs to be diluted to 8 concentrations. Before the experiment, the solution containing DPP-8 enzyme was incubated with the mixture of compounds for 10 min at RT. And then, the reaction solution was added and incubated for 30 min. The enzyme was not added to the negative control group. The fluorescence signal was assayed after 30 min. All of the compounds were assayed twice.

Another assay addresses DPP-9 (Homo sapiens, UniProt Q86TI2). Description: Inhibition to DPP-9 measured by a fluorescence assay (DPPIV-Glo). How it is done: as §1
3. The inhibition to DPP-9 was measured by a fluorescence assay:
All of the compounds were 10-fold diluted by DMSO before the experiment, and each compound needs to be diluted to 8 concentrations. Before the experiment, the solution containing DPP-9 enzyme was incubated with the mixture of compounds for 10 min at RT. And then, the reaction solution was added and incubated for 30 min. The enzyme was not added to the negative control group. The fluorescence signal was assayed after 30 min. All of the compounds were assayed twice.

Setting [1] is: 26 pM DPP-9, pH 7.5, 10 min preincubation at RT, 30 min reaction, 8 concentrations, assayed twice, read-out: IC50 DPP-9.

Chain of DPP-9 (Q86TI2 whole entry, species assumed): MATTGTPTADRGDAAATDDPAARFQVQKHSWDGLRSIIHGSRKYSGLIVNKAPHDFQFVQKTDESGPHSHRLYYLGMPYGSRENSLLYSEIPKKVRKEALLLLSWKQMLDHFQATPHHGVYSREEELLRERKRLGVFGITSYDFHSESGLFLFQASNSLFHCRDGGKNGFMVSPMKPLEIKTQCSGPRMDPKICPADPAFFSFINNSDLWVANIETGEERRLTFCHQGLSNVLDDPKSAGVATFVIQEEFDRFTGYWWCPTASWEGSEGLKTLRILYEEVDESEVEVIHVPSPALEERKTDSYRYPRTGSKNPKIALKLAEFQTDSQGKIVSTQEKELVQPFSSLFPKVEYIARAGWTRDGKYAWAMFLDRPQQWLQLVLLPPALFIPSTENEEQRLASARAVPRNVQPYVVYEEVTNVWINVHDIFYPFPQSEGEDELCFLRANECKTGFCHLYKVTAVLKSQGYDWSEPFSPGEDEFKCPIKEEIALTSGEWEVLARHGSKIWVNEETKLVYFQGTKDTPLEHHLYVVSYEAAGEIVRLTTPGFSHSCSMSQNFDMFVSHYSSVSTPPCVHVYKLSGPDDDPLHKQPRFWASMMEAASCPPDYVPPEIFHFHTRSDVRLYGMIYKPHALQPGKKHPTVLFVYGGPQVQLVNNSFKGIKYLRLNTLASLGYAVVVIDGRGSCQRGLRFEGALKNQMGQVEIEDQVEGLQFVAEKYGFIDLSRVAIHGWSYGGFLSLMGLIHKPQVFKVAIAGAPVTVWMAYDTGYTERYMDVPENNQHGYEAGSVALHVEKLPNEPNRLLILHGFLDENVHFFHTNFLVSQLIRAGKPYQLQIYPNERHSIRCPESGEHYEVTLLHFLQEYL
Chain of DPP-IV (P27487 whole entry, species assumed): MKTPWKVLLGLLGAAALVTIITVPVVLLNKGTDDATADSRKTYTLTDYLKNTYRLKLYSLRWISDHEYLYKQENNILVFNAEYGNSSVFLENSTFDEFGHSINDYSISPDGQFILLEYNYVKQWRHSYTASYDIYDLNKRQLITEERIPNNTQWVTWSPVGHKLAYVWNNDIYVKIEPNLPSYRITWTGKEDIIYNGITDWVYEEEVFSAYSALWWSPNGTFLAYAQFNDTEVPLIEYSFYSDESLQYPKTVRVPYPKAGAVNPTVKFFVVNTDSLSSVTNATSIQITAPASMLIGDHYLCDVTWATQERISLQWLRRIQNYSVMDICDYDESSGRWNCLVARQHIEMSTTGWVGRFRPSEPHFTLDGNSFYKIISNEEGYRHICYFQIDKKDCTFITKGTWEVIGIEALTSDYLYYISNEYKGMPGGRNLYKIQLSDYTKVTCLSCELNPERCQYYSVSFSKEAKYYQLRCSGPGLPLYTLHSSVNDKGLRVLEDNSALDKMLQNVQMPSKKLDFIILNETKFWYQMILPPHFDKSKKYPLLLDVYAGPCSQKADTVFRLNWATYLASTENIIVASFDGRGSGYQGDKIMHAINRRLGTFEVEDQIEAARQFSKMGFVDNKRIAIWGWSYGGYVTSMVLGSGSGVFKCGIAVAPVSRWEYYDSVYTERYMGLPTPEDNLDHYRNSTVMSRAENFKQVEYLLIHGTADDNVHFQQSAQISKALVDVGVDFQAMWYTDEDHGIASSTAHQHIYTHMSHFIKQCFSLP

For `Cc1cc(N2CC[C@@H](N)C2)c2c(n1)n(C)c(=O)n2Cc1ccccc1C#N` [Compound 21, (R)-2-[[7-(3-aminopyrrolidin-1-yl)-3,5-dimethyl-2-oxo-2,3-dihydro-1H-imidazo[4,5-b]pyridin-1-yl]methyl]benzonitrile], the concentration for half-maximal inhibition (IC50) (as a rule, the concentration at which inhibition is half-maximal) was 0.0112 µM on DPP-IV, above 100 µM against DPP-8 and above 100 µM on DPP-9 (setting [1]).

On to `Cn1c(=O)n(Cc2cc(F)ccc2F)c2c(N3CCC[C@@H](N)C3)ccnc21` [Compound 4, (R)-1-(2,5-difluorobenzyl)-7-(3-aminopiperidin-1-yl)-3-methyl-1H-imidazo[4,5-b]pyridine-2(3H)-one], for which the IC50 against DPP-IV was 0.545 µM; at DPP-8 it was above 100 µM; on DPP-9 (setting [1]), above 100 µM.

As to `Cc1cc(N2CCC[C@@H](N)C2)c2c(n1)n(C)c(=O)n2Cc1ccccc1C#N` [Compound 17, (R)-2-[[7-(3-aminopiperidin-1-yl)-3,5-dimethyl-2-oxo-2,3-dihydro-1H-imidazo[4,5-b]pyridin-1-yl]methyl]benzonitrile], the IC50 against DPP-IV is 0.0089 µM; at DPP-8, above 100 µM; on DPP-9 (setting [1]), above 100 µM.

Regarding `Cn1c(=O)n(Cc2ccccc2C#N)c2c(N3CCC[C@@H](N)C3)c3ccccc3nc21` [Compound 18, (R)-2-[[9-(3-aminopiperidin-1-yl)-3-methyl-2-oxo-2,3-dihydro-1H-imidazo[4,5-b]quinolin-1-yl]methyl]benzonitrile], the IC50 at DPP-8 and against DPP-9 was above 100 µM each time.

Turning to `Cn1c(=O)n(Cc2ccccc2C#N)c2c(N3CC[C@@H](N)C3)ccnc21` [Compound 12, (R)-2-[[7-(3-aminopyrrolidin-1-yl)-3-methyl-2-oxo-2,3-dihydro-1H-imidazo[4,5-b]pyridin-1-yl]methyl]benzonitrile], the concentration for half-maximal inhibition (IC50) on DPP-8 and against DPP-9 was above 100 µM in each case.

For `Cn1c(=O)n(Cc2ccccc2C#N)c2c(N3CCC[C@@H](N)C3)cc(Cl)nc21` [Compound 22], the half-inhibitory concentration (IC50) on DPP-IV was 0.01 µM; at DPP-8, above 100 µM; at DPP-9 (setting [1]) it was above 100 µM.

For `Cc1cc(N2CCC[C@@H](NCc3ccccc3C#N)C2)c2c(n1)n(C)c(=O)n2Cc1ccccc1C#N` [Compound 31, (R)-7-[3-(2-cyanobenzyl)aminopiperidin-1-yl]-1-(2-cyanobenzyl)-3,5-dimethyl-2-oxo-2,3-dihydro-1H-imidazo[4,5-b]pyridine], the results for the IC50 on DPP-IV, on DPP-8 and on DPP-9 (setting [1]) were 0.422 µM, above 100 µM and above 100 µM, respectively.

On to `Cn1c(=O)n(Cc2ccccc2C#N)c2c(N3CCC[C@@H](N)C3)cc(CO)nc21` [Compound 29, (R)-2-[[7-(3-aminopiperidin-1-yl)-3-methyl-5-hydroxymethyl-2-oxo-2,3-dihydro-1H-imidazo[4,5-b]pyridin-1-yl]methyl]benzonitrile], for which the figures for the IC50 against DPP-IV, at DPP-8 and on DPP-9 (setting [1]) were 0.0135 µM, above 100 µM and above 100 µM, respectively.

As to `Cn1c(=O)n(Cc2ccccc2C#N)c2c(N3CCC[C@@H](N)C3)cc(C(=O)O)nc21` [Compound 30, (R)-7-(3-aminopiperidin-1-yl)-1-(2-cyanobenzyl)-3-methyl-2-oxo-2,3-dihydro-1H-imidazo[4,5-b]pyridine-5-formylic acid], the results for the concentration for half-maximal inhibition (IC50) at DPP-IV, against DPP-8 and at DPP-9 (setting [1]) were 0.0079 µM, above 100 µM and above 100 µM, respectively.

Turning to `Cn1c(=O)n(Cc2ccccc2C#N)c2c(N3CCCCC(N)C3)ccnc21` (centres unmarked) [Compound 15, 2-[[7-(3-aminohomopiperidin-1-yl)-3-methyl-2-oxo-2,3-dihydro-1H-imidazo[4,5-b]pyridin-1-yl]methyl]benzonitrile], the IC50 at DPP-8 and against DPP-9 was above 100 µM throughout.

As to `N#Cc1ccccc1Cn1c(=O)oc2nccc(N3CCC[C@@H](N)C3)c21` [Compound 11, (R)-2-[[7-(3-aminopiperidin-1-yl)-2-oxo-oxazolo[5,4-b]pyridin-1(2H)-yl]methyl]benzonitrile], the IC50 against DPP-8 and on DPP-9 was above 100 µM in each case.

For `CCc1cc(N2CCC[C@@H](N)C2)c2c(n1)n(C)c(=O)n2Cc1ccccc1C#N` [Compound 25, (R)-2-[[7-(3-aminopiperidin-1-yl)-5-ethyl-3-methyl-2-oxo-2,3-dihydro-1H-imidazo[4,5-b]pyridin-1-yl]methyl]benzonitrile], the values for the IC50 against DPP-IV, at DPP-8 and on DPP-9 (setting [1]) were 0.0193 µM, above 100 µM and above 100 µM, respectively.

In the case of `Cn1c(=O)n(Cc2ccccc2Cl)c2c(N3CCC[C@@H](N)C3)ccnc21` [Compound 5, (R)-1-(2-chlorobenzyl)-7-(3-aminopiperidin-1-yl)-3-methyl-1H-imidazo[4,5-b]pyridine-2(3H)-one], the IC50 against DPP-8 and against DPP-9 was above 100 µM each time.

`CCn1c(=O)n(Cc2ccccc2C#N)c2c(N3CCC[C@@H](N)C3)cc(C)nc21` [Compound 26, (R)-2-[[7-(3-aminopiperidin-1-yl)-3-ethyl-5-methyl-2-oxo-2,3-dihydro-1H-imidazo[4,5-b]pyridin-1-yl]methyl]benzonitrile]: the IC50 is 0.0569 µM at DPP-IV, above 100 µM against DPP-8 and above 100 µM on DPP-9 (setting [1]).

`N#Cc1ccccc1Cn1c(=O)[nH]c2nccc(N3CCC[C@@H](N)C3)c21` [Compound 19, (R)-2-[[7-(3-aminopiperidin-1-yl)-2-oxo-2,3-dihydro-1H-imidazo[4,5-b]pyridin-1-yl]methyl]benzonitrile]: the IC50 against DPP-8 and on DPP-9 was above 100 µM each time.

`CN(C)c1cc(N2CCC[C@@H](N)C2)c2c(n1)n(C)c(=O)n2Cc1ccccc1C#N` [Compound 23, (R)-2-[[7-(3-aminopiperidin-1-yl)-5-(dimethylamino)-3-methyl-2-oxo-2,3-dihydro-1H-imidazo[4,5-b]pyridin-1-yl]methyl]benzonitrile]: the half-inhibitory concentration (IC50) against DPP-IV is 0.0229 µM; against DPP-8 it was above 100 µM; at DPP-9 (setting [1]) it was above 100 µM.

For the compound `CN[C@@H]1CCCN(c2ccnc3c2n(Cc2ccccc2C#N)c(=O)n3C)C1` [Compound 6, (R)-2-[[3-methyl-7-[3-(methylamino)piperidin-1-yl]-2-oxo-2,3-dihydro-1H-imidazo[4,5-b]pyridin-1-yl]methyl]benzonitrile], the half-maximal inhibitory concentration (IC50) against DPP-8 and at DPP-9 was above 100 µM in each case.

As for `CC(C)n1c(=O)n(Cc2ccccc2C#N)c2c(N3CCC[C@@H](N)C3)ccnc21` [Compound 2, (R)-2-[[7-(3-aminopiperidin-1-yl)-3-isopropyl-2-oxo-2,3-dihydro-1H-imidazo[4,5-b]pyridin-1-yl]methyl]benzonitrile], the IC50 against DPP-8 and against DPP-9 was above 100 µM each time.

`Cn1c(=O)n(Cc2ccccc2C#N)c2c(N3CCC[C@@H](N)C3)ccnc21` [Compound 1, (R)-2-[[7-(3-aminopiperidin-1-yl)-3-methyl-2-oxo-2,3-dihydro-1H-imidazo[4,5-b]pyridin-1-yl]methyl]benzonitrile]: the IC50 against DPP-8 and against DPP-9 was above 100 µM throughout.

As for `Cn1c(=O)n(Cc2ccccc2F)c2c(N3CCC[C@@H](N)C3)ccnc21` [Compound 3, (R)-1-(2-fluorobenzyl)-7-(3-aminopiperidin-1-yl)-3-methyl-1H-imidazo[4,5-b]pyridin-2(3H)-one], the half-maximal inhibitory concentration (IC50) on DPP-8 and against DPP-9 was above 100 µM each time.
